Test results published in patent US20100056508A1, “AMINE DERIVATIVES AND THEIR USE IN BETA-2-ADRENORECEPTOR MEDIATED DISEASES” (ASTRAZENECA AB, priority 2006, published 2010).

Experiments:
[1] = molecular target: T1, recombinant human α1D receptor (Homo sapiens, UniProt P25100); test: Adrenergic α1D selectivity assay, [3H]-prazosin binding to membranes; conditions: inhibition of [3H]-prazosin binding, HEK cell membranes, read-out: α1 bind pIC50 (converted)
T1 construct: expressed in transfected cells; host or cells: human embryonic kidney 293 cells (HEK93 [sic]), membranes
T1 sequence (P25100 1-572): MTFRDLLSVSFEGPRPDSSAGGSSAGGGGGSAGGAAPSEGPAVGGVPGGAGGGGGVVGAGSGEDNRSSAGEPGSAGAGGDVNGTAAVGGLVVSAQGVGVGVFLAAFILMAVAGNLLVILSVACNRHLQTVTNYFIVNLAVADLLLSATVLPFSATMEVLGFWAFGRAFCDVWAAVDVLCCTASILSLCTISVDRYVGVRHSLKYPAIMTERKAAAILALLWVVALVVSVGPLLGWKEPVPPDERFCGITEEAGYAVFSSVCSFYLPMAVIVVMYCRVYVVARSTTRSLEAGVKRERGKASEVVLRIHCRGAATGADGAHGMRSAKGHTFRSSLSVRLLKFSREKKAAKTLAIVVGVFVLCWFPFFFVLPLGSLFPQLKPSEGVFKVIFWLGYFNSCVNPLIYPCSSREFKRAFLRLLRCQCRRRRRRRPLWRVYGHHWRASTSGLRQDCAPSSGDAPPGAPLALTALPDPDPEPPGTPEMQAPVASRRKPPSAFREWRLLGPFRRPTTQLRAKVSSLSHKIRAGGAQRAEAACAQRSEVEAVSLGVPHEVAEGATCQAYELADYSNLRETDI
Description: Membranes were prepared from human embryonic kidney 293 ([…]) cells expressing recombinant human α1D receptor. These were diluted in Assay Buffer (50 mM HEPES, 1 mM EDTA, pH 7.4) to provide a final concentration of membranes that gave a clear window between maximum and minimum specific binding.
(§1) Assays were performed in U-bottomed 96-well polypropylene plates. 10 μL [^3H]-prazosin (0.3 nM final concentration) and 10 mL of test compound (10× final concentration) were added to each test well. For each assay plate 8 replicates were obtained for [^3H]-prazosin binding in the presence of 10 μL vehicle (10% (v/v) DMSO in Assay Buffer; defining maximum binding) or 10 μL BMY7378 (10 μM final concentration; defining non-specific binding (NSB)). Membranes were then added to achieve a final volume of 100 μL. The plates were incubated for 2 hours at room temperature and then filtered onto PEI coated GF/B filter plates, pre-soaked for 1 hour in Assay Buffer, using a 96-well plate Tomtec cell harvester. Five washes with 250 μL wash buffer (50 mM HEPES, 1 mM EDTA, pH 7.4) were performed at 4° C. to remove unbound radioactivity. The plates were dried then sealed from underneath using Packard plate sealers and MicroScint-O (50 μL) was added to each well. The plates were sealed (TopSeal A) and filter-bound radioactivity was measured with a scintillation counter (TopCount, Packard BioScience) using a 3-minute counting protocol.
(§2) Total specific binding (B0) was determined by subtracting the mean NSB from the mean maximum binding. NSB values were also subtracted from values from all other wells. […] Data was fitted to a four parameter logistic equation to determine the compound potency, which was expressed as pIC50 (negative log molar concentration inducing 50% inhibition of [^3H]-prazosin binding).

Adrenergic β2 = molecular target: T2, Adrenergic β2 (Homo sapiens, UniProt P07550); test: Adrenergic β2 mediated cAMP production in H292 cells (AlphaScreen cAMP detection); format: cell-based; parameters: key to β2 Int Act: fraction of formoterol maximum activity (formoterol = 1); conditions: for β2 Int Act: Intrinsic Activity as a fraction relative to the maximum activity determined for formoterol; for EC50: cAMP production, 60 minutes at room temperature, 300 μM rolipram, read-out: β2 pEC50 (converted)
T2 construct: Adherent H292 cells were removed from tissue culture flasks; endogenous in cells; host or cells: H292 cells
Description: Adrenergic β2 Mediated cAMP Production
H292 cells were grown in 225 cm2 flasks incubator at 37° C., 5% CO2 in RPMI medium containing, 10% (v/v) FBS (foetal bovine serum) and 2 mM L-glutamine.
Adherent H292 cells were removed from tissue culture flasks by treatment with Accutase™ cell detachment solution for 15 minutes. Flasks were incubated for 15 minutes in a humidified incubator at 37° C., 5% CO2. Detached cells were re-suspended in RPMI media (containing 10% (v/v) FBS and 2 mM L-glutamine) at 1×10^6 cells per mL. 10000 cells in 100 μL were added to each well of a tissue-culture-treated 96-well plate and the cells incubated overnight in a humidified incubator at 37° C., 5% CO2. The culture media was removed and cells were washed twice with 100 μL assay buffer and replaced with 50 μL assay buffer (HBSS solution containing 10 mM HEPES pH7.4 and 5 mM glucose). Cells were rested at room temperature for 20 minutes after which time 25 μL of rolipram (1.2 mM made up in assay buffer containing 2.4% (v/v) dimethylsulphoxide) was added. Cells were incubated with rolipram for 10 minutes after which time test compounds were added and the cells were incubated for 60 minutes at room temperature. The final rolipram concentration in the assay was 300 μM and final vehicle concentration was 1.6% (v/v) dimethylsulphoxide. The reaction was stopped by removing supernatants, washing once with 100 μL assay buffer and replacing with 50 μL lysis buffer. The cell monolayer was frozen at −80° C. for 30 minutes (or overnight).
AlphaScreen™ cAMP Detection
The concentration of cAMP (cyclic adenosine monophosphate) in the cell lysate was determined using AlphaScreen™ methodology. The frozen cell plate was thawed for 20 minutes on a plate shaker then 10 μL of the cell lysate was transferred to a 96-well white plate. 40 μL of mixed AlphaScreen™ detection beads pre-incubated with biotinylated cAMP, was added to each well and the plate incubated at room temperature for 10 hours in the dark. The AlphaScreen™ signal was measured using an EnVision spectrophotometer (Perkin-Elmer Inc.) with the recommended manufacturer's settings. cAMP concentrations were determined by reference to a calibration curve determined in the same experiment using standard cAMP concentrations. Concentration response curves for agonists were constructed and data was fitted to a four parameter logistic equation to determine both the pEC50 and Intrinsic Activity. Intrinsic Activity was expressed as a fraction relative to the maximum activity determined for formoterol in each experiment.

[2] = molecular target: T3, recombinant human adrenergic beta 1 receptors (Homo sapiens, UniProt P08588); test: Adrenergic β1 selectivity assay, [125I]-Iodocyanopindolol binding to membranes; conditions: inhibition of [125I]-Iodocyanopindolol binding, read-out: β1 bind pIC50 (converted)
T3 construct: purchased Euroscreen
Description: (§3) Membranes containing recombinant human adrenergic beta 1 receptors were obtained from Euroscreen. These were diluted in Assay Buffer (50 mM HEPES, 1 mM EDTA, 120 mM NaCl, 0.1% gelatin, pH 7.4) to provide a final concentration of membranes that gave a clear window between maximum and minimum specific binding.
as §1, with “[^125I]-Iodocyanopindolol (0.036” for “[^3H]-prazosin (0.3”, “μL” for “mL”, “[^125I]-Iodocyanopindolol” for “[^3H]-prazosin”, “Propranolol” for “BMY7378”, “EDTA, 120 mM NaCl,” for “EDTA,”
as §2, with “[^125I]-Iodocyanopindolol” for “[^3H]-prazosin”

[3] = molecular target: T4, recombinant human Dopamine Subtype D2s receptors (Homo sapiens, UniProt P14416); test: Dopamine D2 selectivity assay, [3H]-spiperone binding to membranes; conditions: inhibition of [3H]-spiperone binding, read-out: D2 bind pIC50 (converted)
T4 construct: purchased Perkin Elmer
Description: as §3, with “Dopamine Subtype D2s” for “adrenergic beta 1”, “Perkin Elmer.” for “Euroscreen.”
Assays were performed in U-bottomed 96-well polypropylene plates. 30 μL [^3H]-spiperone (0.16 nM final concentration) and 30 μL of test compound (10× final concentration) were added to each test well. For each assay plate 8 replicates were obtained for [^3H]-spiperone binding in the presence of 30 μL vehicle (10% (v/v) DMSO in Assay Buffer; defining maximum binding) or 30 μL Haloperidol (10 μM final concentration; defining non-specific binding (NSB)). Membranes were then added to achieve a final volume of 300 μL. The plates were incubated for 2 hours at room temperature and then filtered onto PEI coated GF/B filter plates, pre-soaked for 1 hour in Assay Buffer, using a 96-well plate Tomtec cell harvester. Five washes with 250 μL wash buffer (50 mM HEPES, 1 mM EDTA, 120 mM NaCl, pH 7.4) were performed at 4° C. to remove unbound radioactivity. The plates were dried then sealed from underneath using Packard plate sealers and MicroScint-0 (50 μL) was added to each well. The plates were sealed (TopSeal A) and filter-bound radioactivity was measured with a scintillation counter (TopCount, Packard BioScience) using a 3-minute counting protocol.
as §2, with “[^3H]-spiperone” for “[^3H]-prazosin”

T2 sequence (P07550 whole entry): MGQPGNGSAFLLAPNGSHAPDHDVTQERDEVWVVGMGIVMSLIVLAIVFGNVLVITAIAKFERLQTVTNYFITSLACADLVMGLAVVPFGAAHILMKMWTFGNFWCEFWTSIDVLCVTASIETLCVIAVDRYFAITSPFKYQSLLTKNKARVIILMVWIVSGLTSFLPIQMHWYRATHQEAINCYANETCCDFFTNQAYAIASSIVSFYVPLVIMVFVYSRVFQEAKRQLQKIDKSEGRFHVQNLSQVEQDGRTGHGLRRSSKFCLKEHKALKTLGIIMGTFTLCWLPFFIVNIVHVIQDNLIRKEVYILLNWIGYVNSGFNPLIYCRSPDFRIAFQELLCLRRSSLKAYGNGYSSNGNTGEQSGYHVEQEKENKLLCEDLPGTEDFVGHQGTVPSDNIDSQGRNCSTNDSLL
T4 sequence (P14416 1-414 isoform P14416-2): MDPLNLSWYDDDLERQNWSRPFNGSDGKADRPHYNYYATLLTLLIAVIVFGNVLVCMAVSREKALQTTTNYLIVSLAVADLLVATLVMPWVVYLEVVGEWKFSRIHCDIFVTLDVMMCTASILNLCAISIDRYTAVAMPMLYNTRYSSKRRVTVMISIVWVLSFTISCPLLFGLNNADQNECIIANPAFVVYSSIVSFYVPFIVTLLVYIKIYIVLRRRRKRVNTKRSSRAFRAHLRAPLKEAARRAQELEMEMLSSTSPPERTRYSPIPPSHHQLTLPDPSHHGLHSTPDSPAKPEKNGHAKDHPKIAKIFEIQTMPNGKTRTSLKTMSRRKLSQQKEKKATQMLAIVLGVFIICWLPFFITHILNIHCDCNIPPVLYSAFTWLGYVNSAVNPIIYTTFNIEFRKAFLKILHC
T3 sequence (P08588 whole entry): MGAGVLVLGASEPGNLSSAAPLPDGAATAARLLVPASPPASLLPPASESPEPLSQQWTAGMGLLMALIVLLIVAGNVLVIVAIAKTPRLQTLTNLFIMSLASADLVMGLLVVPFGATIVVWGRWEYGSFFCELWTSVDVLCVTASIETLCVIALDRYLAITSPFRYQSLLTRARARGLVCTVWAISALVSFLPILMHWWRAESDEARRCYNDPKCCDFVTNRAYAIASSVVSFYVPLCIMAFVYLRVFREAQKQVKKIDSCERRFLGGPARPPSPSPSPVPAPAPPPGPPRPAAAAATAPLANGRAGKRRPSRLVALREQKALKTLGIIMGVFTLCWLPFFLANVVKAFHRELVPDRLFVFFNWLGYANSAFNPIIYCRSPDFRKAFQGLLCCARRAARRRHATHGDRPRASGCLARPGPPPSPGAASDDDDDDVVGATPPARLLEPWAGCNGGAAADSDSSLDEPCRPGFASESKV

IC50 [1] [nM] | β2 Int Act (Adrenergic β2) | EC50 (Adrenergic β2) [nM] | IC50 [2] [nM] | IC50 [3] [nM] | Structure (SMILES)
63.1 | 0.9 | 1.58 | 1000 |  | O=C1COc2c(CCNCCN(C(=O)CCNCCc3cc(Cl)ccc3F)C3CCCCC3)ccc(O)c2N1 [Example 34, 3-(5-Chloro-2-fluorophenethylamino)-N-cyclohexyl-N-(2-(2-(5-hydroxy-3-oxo-3,4-dihydro-2H-benzo[b][1,4]oxazin-8-yl)ethylamino)ethyl)propanamide bis(trifluoroacetate)]
79.4 | 0.9 | 1.58 | 2510 |  | Cc1ccc(F)c(CCNCCC(=O)N(CCNCCc2ccc(O)c3c2OCC(=O)N3)C2CCCCC2)c1 [Example 33, N-Cyclohexyl-3-(2-fluoro-5-methylphenethylamino)-N-(2-(2-(5-hydroxy-3-oxo-3,4-dihydro-2H-benzo[b][1,4]oxazin-8-yl)ethylamino)ethyl)propanamide bis(trifluoroacetate)]
316 | 0.85 | 20 | > 10000 |  | O=C(CCNCCc1ccc(F)c(F)c1)N(CCNCCc1ccc(O)c2[nH]c(=O)ccc12)C1CCCCC1 [Example 16, N-Cyclohexyl-3-(3,4-difluorophenethylamino)-N-(2-(2-(8-hydroxy-2-oxo-1,2-dihydroquinolin-5-yl)ethylamino)ethyl)propanamide bis(trifluoroacetate)]
39.8 | 0.86 | 2.51 |  | 79.4 | O=C1COc2c(CCNCCN(C(=O)CCNCCc3ccccc3Cl)C3CCCCC3)ccc(O)c2N1 [Example 28, 3-(2-Chlorophenethylamino)-N-cyclohexyl-N-(2-(2-(5-hydroxy-3-oxo-3,4-dihydro-2H-benzo[b][1,4]oxazin-8-yl)ethylamino)ethyl)propanamide bis(trifluoroacetate)]
316 | 0.85 | 20 | > 7940 |  | O=C(CCNCCc1cc(F)cc(F)c1)N(CCNCCc1ccc(O)c2[nH]c(=O)ccc12)C1CCCCCC1 [Example 10, N-Cycloheptyl-3-(3,5-difluorophenethylamino)-N-(2-(2-(8-hydroxy-2-oxo-1,2-dihydroquinolin-5-yl)ethylamino)ethyl)propanamide bis(trifluoroacetate)]
50.1 | 0.65 | 31.6 |  | 251 | O=C(CCNCCc1ccc(F)cc1)N(CCNCCc1ccc(O)c2[nH]c(=O)ccc12)C1CCCCCC1 [Example 6, N-Cycloheptyl-3-(4-fluorophenethylamino)-N-(2-(2-(8-hydroxy-2-oxo-1,2-dihydroquinolin-5-yl)ethylamino)ethyl)propanamide bis(trifluoroacetate)]
200 | 0.87 | 10 |  | 1260 | O=C(CCNCCc1cccc(F)c1)N(CCNCCc1ccc(O)c2[nH]c(=O)ccc12)C1CCCCC1 [Example 19, N-Cyclohexyl-3-(3-fluorophenethylamino)-N-(2-(2-(8-hydroxy-2-oxo-1,2-dihydroquinolin-5-yl)ethylamino)ethyl)propanamide]
